The numbers were not newly measured in patent US20090192128A1 (priority 2005, published 2009), which cites them from elsewhere.

Each structure is given as a SMILES string. Where a name gives a salt, the structure may show the parent alone.

As to `O=[N+]([O-])O[C@H]1CO[C@H]2[C@@H]1OC[C@H]2O[N+](=O)[O-]` [Diluted isosorbide dinitrate, 1,4,3,6-dianhydro-D-glucitol-2,5-dinitrate], the solubility in water entry is “sparingly soluble”. Also, the “solubility in organic solvents” value (organic solvents such as ethanol, ether and chloroform) was “freely soluble”.
In the case of `NNc1nncc2ccccc12` [Hydralazine hydrochloride, hydralazine hydrochloride], the solubility in water entry is on record as “soluble”. Further, the solubility in alcohol entry (alcohol) is on record as “slightly soluble”. Moreover, for the setting “ether”, the solubility in ether result is “very slightly soluble”.
